The results in this text go back to patent US9975896B2, “Inhibitors of transcription factors and uses thereof” (Dana-Farber Cancer Institute, Inc., priority 2013, dated 2018).

The target in one assay is T1, ATAD2B (Homo sapiens, UniProt Q9ULI0).
T1 sequence (Q9ULI0 953-1085 limits assumed): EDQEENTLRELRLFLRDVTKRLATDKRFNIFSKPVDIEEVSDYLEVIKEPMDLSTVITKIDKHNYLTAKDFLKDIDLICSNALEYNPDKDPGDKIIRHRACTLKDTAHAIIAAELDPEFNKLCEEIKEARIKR
The assay can be described thus: BromoScan selectivity panel (Kd). The format is binding.

Assay [1] concerns the target T2, CBP (Homo sapiens, UniProt Q92793). The assay can be described thus: BromoScan selectivity panel (Kd).
Target sequence in this assay (Q92793 1081-1197 limits assumed): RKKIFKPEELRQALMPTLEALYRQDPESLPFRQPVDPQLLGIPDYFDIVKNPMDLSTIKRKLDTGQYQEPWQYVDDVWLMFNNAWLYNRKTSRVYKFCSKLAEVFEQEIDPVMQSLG
A further assay deals with T3, BAZ2A (Homo sapiens, UniProt Q9UIF9).
T3 sequence (Q9UIF9 1796-1899 limits assumed): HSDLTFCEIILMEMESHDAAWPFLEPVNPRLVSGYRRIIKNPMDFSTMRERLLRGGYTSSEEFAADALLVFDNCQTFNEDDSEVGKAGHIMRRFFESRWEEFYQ
As to the kind of experiment: BromoScan selectivity panel (Kd). The format is binding.

In a further assay the target is T4, BRPF1 (Homo sapiens, UniProt P55201).
T4 sequence (P55201 626-740 limits assumed): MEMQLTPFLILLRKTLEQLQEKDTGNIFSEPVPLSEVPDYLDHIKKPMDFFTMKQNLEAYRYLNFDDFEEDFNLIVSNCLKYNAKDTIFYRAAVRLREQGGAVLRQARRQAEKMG
As to the kind of experiment: BromoScan selectivity panel (Kd). It is filed as binding.

In the next assay the target is T5, TRIM33(PHD Bromo.) (Homo sapiens, UniProt Q9UPN9).
T5 construct: TRIM33(PHD, Bromo.); TRIM33(PHD Bromo.); fused on or other part: The vendor panel's detection tag or display handle
T5 sequence (Q9UPN9 1-1127): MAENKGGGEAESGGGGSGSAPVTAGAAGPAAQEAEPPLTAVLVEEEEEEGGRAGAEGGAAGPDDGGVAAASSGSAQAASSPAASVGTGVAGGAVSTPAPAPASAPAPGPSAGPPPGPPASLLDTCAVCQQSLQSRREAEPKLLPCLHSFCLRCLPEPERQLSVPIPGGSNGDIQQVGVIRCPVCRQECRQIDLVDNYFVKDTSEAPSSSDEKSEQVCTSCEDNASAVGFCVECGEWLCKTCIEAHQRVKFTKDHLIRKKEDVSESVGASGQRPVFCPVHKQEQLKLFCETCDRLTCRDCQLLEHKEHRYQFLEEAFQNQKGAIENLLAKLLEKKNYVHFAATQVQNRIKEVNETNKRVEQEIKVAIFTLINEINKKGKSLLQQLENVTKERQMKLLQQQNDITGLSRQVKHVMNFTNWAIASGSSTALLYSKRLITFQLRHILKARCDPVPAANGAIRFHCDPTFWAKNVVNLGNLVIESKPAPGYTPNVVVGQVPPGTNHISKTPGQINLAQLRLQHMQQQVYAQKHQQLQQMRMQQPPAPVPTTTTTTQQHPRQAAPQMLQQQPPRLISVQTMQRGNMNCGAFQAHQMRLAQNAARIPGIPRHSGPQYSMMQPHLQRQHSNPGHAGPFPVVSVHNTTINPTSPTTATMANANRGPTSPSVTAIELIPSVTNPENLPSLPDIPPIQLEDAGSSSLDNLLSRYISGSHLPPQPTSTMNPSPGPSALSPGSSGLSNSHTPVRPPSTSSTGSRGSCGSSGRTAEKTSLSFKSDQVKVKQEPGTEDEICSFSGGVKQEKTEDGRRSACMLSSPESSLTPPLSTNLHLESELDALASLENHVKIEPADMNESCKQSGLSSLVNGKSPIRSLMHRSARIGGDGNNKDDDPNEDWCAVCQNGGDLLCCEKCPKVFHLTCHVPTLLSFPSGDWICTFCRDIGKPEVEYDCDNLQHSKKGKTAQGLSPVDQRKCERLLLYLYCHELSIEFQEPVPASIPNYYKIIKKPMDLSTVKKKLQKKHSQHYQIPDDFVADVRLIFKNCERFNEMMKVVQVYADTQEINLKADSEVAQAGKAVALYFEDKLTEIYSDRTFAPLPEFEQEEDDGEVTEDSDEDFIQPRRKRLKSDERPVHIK
As to the kind of experiment: BromoScan selectivity panel (Kd). It is filed as binding.

The next assay addresses T6, BAZ2B (Homo sapiens, UniProt Q9UIF8).
T6 sequence (Q9UIF8 2054-2168 limits assumed): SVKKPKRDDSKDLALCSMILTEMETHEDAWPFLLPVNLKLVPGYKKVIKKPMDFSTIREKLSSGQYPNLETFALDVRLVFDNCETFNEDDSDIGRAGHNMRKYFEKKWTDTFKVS
The assay can be described thus: BromoScan selectivity panel (Kd). It is filed as binding.

Another assay concerns the target T7, ATAD2A (Homo sapiens, UniProt Q6PL18).
T7 sequence (Q6PL18 981-1108 limits assumed): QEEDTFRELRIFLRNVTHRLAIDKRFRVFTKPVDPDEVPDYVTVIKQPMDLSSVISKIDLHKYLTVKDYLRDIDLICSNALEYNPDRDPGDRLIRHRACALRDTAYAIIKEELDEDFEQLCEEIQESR
As to the kind of experiment: BromoScan selectivity panel (Kd). The format is binding.

A further assay concerns the target T8, TRIM24(PHD Bromo.) (Homo sapiens, UniProt O15164).
T8 construct: TRIM24(PHD Bromo.)
T8 sequence (O15164 824-1006 limits assumed): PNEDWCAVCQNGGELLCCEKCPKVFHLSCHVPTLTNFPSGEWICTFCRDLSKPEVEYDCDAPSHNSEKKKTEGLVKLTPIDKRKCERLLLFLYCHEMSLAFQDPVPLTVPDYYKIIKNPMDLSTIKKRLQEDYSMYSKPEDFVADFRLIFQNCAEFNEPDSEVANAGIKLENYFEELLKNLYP
The assay can be described thus: BromoScan selectivity panel (Kd). It is filed as binding.

The target of another assay is FALZ (Homo sapiens, UniProt Q12830). The assay can be described thus: BromoScan selectivity panel (Kd). It is filed as binding.
Another assay concerns the target T9, EP300 (Homo sapiens, UniProt Q09472).
T9 sequence (Q09472 1040-1161 limits assumed): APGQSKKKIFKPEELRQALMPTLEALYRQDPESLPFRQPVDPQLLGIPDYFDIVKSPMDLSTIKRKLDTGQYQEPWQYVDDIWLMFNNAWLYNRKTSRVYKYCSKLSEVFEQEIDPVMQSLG
The assay can be described thus: BromoScan selectivity panel (Kd). The format is binding.

The target in a further assay is T10, BRD9 (Homo sapiens, UniProt Q9H8M2).
T10 sequence (Q9H8M2 130-250 limits assumed): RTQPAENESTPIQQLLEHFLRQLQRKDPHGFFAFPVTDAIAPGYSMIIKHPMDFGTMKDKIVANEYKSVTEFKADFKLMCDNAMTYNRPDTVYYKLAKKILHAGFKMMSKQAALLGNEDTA
As to the kind of experiment: BromoScan selectivity panel (Kd). It is filed as binding.

For another assay, the target named is T11, BRPF3 (Homo sapiens, UniProt Q9ULD4).
T11 sequence (Q9ULD4 589-693 limits assumed): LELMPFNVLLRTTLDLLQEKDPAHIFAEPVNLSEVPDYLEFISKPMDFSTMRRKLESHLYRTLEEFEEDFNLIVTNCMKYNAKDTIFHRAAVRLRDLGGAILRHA
The assay can be described thus: BromoScan selectivity panel (Kd). The format is binding.

The target of another assay is T12, WDR9(2) (Homo sapiens, UniProt Q9NSI6).
T12 construct: WDR9(2)
T12 sequence (Q9NSI6 1313-1418 limits assumed): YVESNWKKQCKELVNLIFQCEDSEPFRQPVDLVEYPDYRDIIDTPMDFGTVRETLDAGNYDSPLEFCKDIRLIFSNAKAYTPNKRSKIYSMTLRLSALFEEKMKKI
The assay can be described thus: BromoScan selectivity panel (Kd). It is filed as binding.

A further assay deals with T13, BRD1 (Homo sapiens, UniProt O95696).
T13 sequence (O95696 556-688 limits assumed): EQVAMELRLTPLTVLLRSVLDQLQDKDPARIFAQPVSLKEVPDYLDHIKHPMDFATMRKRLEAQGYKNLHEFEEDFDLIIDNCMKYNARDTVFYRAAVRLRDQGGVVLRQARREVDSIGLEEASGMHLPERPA
As to the kind of experiment: BromoScan selectivity panel (Kd). The format is binding.

A further assay has as its target T14, BRDT(1) (Homo sapiens, UniProt Q58F21).
T14 construct: the bromodomain-containing protein is BRDT(1)
As to the kind of experiment: BromoScan selectivity panel (Kd). It is filed as binding.

Another assay deals with BRDT(2) (Homo sapiens, UniProt Q58F21). The assay can be described thus: BromoScan selectivity panel (Kd). It is filed as binding.
Another assay has as its target T15, TAF1(2) (Homo sapiens, UniProt P21675).
T15 construct: TAF1(2)
T15 sequence (P21675 1519-1628 limits assumed): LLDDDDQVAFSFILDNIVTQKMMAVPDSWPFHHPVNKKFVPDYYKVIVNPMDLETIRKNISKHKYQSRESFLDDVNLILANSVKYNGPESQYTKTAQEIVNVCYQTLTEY
As to the kind of experiment: BromoScan selectivity panel (Kd). It is filed as binding.

For the next assay, the target named is T16, TAF1L(2) (Homo sapiens, UniProt Q8IZX4).
T16 construct: TAF1L(2)
T16 sequence (Q8IZX4 1517-1626 limits assumed): T15 sequence (P21675 1519-1628 limits assumed) with V46M, M51V, V102I, L107I
As to the kind of experiment: BromoScan selectivity panel (Kd). It is filed as binding.

In another assay the target is BRD4 (Homo sapiens, UniProt O60885). The assay can be described thus: In vitro AlphaScreen protein binding assay (competition with biotinylated JQ1). For orientation: Bead proximity is the source of the signal in Alpha formats.
Assay [2] addresses T2, CBP. The assay can be described thus: In vitro AlphaScreen protein binding assay, CBP.
Target sequence in this assay (Q92793 1085-1192 limits assumed): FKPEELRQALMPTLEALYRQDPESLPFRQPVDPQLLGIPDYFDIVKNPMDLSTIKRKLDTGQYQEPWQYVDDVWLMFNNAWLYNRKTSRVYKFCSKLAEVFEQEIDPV
Method: Assays were performed with minor modifications from the manufacturer's protocol (PerkinElmer, USA). All reagents were diluted in 50 mM HEPES, 150 mM NaCl, 0.1% w/v BSA, and 0.01% w/v Tween® 20 at pH 7.5 and allowed to equilibrate to room temperature prior to addition to plates. After addition of Alpha beads to master solutions, all subsequent steps were performed in low light conditions. […] After a 1000-rpm spin-down for 1 minute, 100 nL of the solutions of compounds of the invention in DMSO from stock plates were added by pin transfer using a Janus Workstation (PerkinElmer, USA). The streptavidin-coated donor beads (25 μg/ml final) were added as with previous solution in a 2×, 10 μL volume. Following this addition, the plates were sealed with foil to block light exposure and to prevent evaporation. The plates were spun down again at 1000 rpm for 1 minute. Next, the plates were incubated in the room with the plate reader (for temperature equilibration) for 1 hour prior to reading the assay. Signal is stable for up to 3 hours after donor bead addition.
Assay [3] concerns BRD4-dependent Nut-Midline Carcinoma line 797. As to the kind of experiment: Cell viability (ATPlite) in BRD4 dependant cell line 797. As to conditions: Homo sapiens, read-out: 797--EC50 (μM). On the technique in general: In ATP-based viability assays light output follows the ATP content of the culture.
For assay [4], the system named is lung carcinoma cell line H2171. As to the kind of experiment: Cellular IC50 in lung carcinoma cell line H2171. The format is cell-based. Here is the method: Cells (e.g., BRD4 dependant cells) were counted and adjusted to 60,000 cells/mL. Using a Biotek EL406, 50 μL of the cells in media were distributed into 384 well white plates from Thermo. Immediately after plating, compounds of the invention in DMSO were distributed to plates. For large plate sets, cells were returned to a 37° C. incubator while not in use. The compounds were added to plates using a 100 nL 384 well pin transfer manifold on a Janus workstation. Stocks were arrayed in 10 point quadruplicate dose response in DMSO stock in 384-well Greiner compound plates. After addition of the compounds, plates were incubated for three days in a 37° C. incubator. Cell viability was read out using ATPlite from Perkin Elmer. Plates were removed from the incubator and brought to room temperature prior to use. Lyophilized powder was resuspended in lysis buffer and diluted 1:2 with DI water. 25 μL of this solution was added to each well using the Biotek liquid handler. Plates were sealed with adherent aluminum seals prior to vortexing and spinning down at 1000 g for 1 minute. Plates were incubated for 15 minutes at room temperature before signal was read on an Envision Plate Reader.

What is called Kd is the constant that tells how readily two partners part at equilibrium. Read a high Kd as lower affinity. Broadly, the IC50 is the concentration that inhibits the measured activity by half. A low value points to greater potency in that assay. Broadly, the EC50 is the concentration at which the effect is half-maximal.

Each structure is given as a SMILES string. Residue numbers refer to the chain shown, from its start. Where only a bound is given, the exact number is not on record here.

As to `Cc1sc2c(c1C)C(c1ccc(Cl)cc1)=NC(CC(=O)OC(C)(C)C)c1nnc(C)n1-2` (stereo not shown) [JQ1, reference compound], the Kd at ATAD2B was not below 40 µM; at CBP [1] it was 24 µM; at BAZ2A, not below 40 µM; on BRPF1 it was not below 40 µM; on TRIM33(PHD Bromo.), not below 40 µM; at BAZ2B it was not below 40 µM. Moreover, the Kd at ATAD2A was not below 40 µM; on TRIM24(PHD Bromo.), not below 40 µM; on FALZ, not below 40 µM; at EP300, 51 µM; at BRD9, not below 40 µM; at BRPF3, not below 40 µM. Moreover, at WDR9(2), the dissociation constant Kd was not below 40 µM.
Regarding `CCNC(=O)C[C@@H]1N=C(c2ccc(Cl)cc2)c2cc(OC)ccc2-n2c(C)nnc21` [I-BET, reference compound], the Kd was not below 40 µM on BRD1; not below 40 µM on ATAD2B; 0.16 µM on BRDT(1); 76 µM at CBP [1]; not below 40 µM on BAZ2A; not below 40 µM at BRPF1. The Kd is not below 40 µM on TRIM33(PHD Bromo.); not below 40 µM at BAZ2B; not below 40 µM on ATAD2A; 0.045 µM on BRDT(2); not below 40 µM at TRIM24(PHD Bromo.); not below 40 µM at FALZ. In addition, the Kd on TAF1(2) was not below 40 µM; on EP300, 71 µM; on TAF1L(2), not below 40 µM; on BRD9, not below 40 µM; on BRPF3, not below 40 µM; at WDR9(2), not below 40 µM.
Regarding `CCOC(=O)[C@]1(C)N[C@H](c2ccc(-c3c(C)noc3C)cc2)[C@@H]2C(=O)N(CC)C(=O)[C@@H]21` [UMB17, (1R,3S,3aR,6aS)-ethyl 3-(4-(3,5-dimethylisoxazol-4-yl)phenyl)-5-ethyl-1-methyl-4,6-dioxooctahydropyrrolo[3,4-c]pyrrole-1-carboxylate], the IC50 on BRD4 (BRD4--IC50 (μM), Table 5, biochemical) was more than 100 µM; at BRD4 (BRD4 IC50 (μM), Table 2, AlphaScreen) it was 122 µM; at CBP [2], 30 µM; in assay [4] (Homo sapiens, NCI-H2171, Table 2, cellular, lung carcinoma cell line H2171) it was 55 µM. The EC50 in assay [3] is 9.42 µM. Also, in assay [4] (text b616), the “cellular activity in H2171” value was “show cellular activity in H2171”.
